Source: publication PMC5822518 (Pharmacognosy Magazine, 2018)
Entries after “also recorded” stand apart in the source; their conditions may differ. Like-named read-outs stand apart in the source and are kept apart here.

Assays:
CYP1A2 = target: T1, CYP1A2 (Homo sapiens, UniProt P05177); test: CYP1A2 fluorescence-based high throughput inhibition assay; assay type: in vitro ADME; conditions: graded by inhibition evaluation standards
T1 sequence (P05177 1-516): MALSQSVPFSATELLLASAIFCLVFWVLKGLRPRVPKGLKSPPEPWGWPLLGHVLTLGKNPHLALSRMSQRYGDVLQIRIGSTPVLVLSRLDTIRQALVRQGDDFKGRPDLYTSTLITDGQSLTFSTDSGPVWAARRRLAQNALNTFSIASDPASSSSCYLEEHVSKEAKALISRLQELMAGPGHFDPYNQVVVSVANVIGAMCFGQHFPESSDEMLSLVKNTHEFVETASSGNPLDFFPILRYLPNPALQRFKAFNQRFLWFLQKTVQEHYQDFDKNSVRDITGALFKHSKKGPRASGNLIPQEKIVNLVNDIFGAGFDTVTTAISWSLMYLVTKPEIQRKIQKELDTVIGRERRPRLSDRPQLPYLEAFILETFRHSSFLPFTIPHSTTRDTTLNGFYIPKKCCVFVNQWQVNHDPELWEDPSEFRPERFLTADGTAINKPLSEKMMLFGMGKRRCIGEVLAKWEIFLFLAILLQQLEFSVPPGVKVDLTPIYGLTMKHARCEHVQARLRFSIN

CYP2C19 [1] = target: T2, CYP2C19 (Homo sapiens, UniProt P33261); test: CYP2C19 fluorescence-based high throughput inhibition assay; assay type: in vitro ADME; conditions: graded by inhibition evaluation standards
T2 sequence (P33261 whole entry): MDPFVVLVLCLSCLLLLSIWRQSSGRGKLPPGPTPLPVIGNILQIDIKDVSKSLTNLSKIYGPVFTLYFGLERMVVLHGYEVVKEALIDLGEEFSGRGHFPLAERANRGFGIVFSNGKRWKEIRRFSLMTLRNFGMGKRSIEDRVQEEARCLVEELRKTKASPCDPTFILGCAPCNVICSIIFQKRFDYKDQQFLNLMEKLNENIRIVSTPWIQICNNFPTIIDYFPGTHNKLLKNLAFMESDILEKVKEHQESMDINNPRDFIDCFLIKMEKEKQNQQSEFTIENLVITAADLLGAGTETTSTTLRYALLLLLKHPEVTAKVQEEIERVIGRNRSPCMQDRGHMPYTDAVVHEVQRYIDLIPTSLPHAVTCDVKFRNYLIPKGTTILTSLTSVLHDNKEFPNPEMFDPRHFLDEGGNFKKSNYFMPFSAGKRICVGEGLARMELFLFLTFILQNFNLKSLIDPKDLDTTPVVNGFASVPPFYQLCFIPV

CYP2D6 [2] = target: T3, CYP2D6 (Homo sapiens, UniProt P10635); test: CYP2D6 fluorescence-based high throughput inhibition assay; assay type: in vitro ADME; conditions: graded by inhibition evaluation standards
T3 sequence (P10635 whole entry): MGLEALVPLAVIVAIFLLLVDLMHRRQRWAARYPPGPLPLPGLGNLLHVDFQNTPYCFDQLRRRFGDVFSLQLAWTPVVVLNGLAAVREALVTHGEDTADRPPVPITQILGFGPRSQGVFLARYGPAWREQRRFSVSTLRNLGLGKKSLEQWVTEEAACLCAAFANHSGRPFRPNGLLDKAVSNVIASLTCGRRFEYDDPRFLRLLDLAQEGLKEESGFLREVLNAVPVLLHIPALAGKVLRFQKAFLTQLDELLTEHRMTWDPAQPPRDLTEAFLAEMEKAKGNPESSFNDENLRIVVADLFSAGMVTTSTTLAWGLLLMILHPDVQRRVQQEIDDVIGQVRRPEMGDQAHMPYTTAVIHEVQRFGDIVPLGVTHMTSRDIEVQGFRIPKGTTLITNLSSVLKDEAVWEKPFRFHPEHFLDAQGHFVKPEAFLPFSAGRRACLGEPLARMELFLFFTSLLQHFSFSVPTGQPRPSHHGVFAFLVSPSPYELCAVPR

CYP2E1 = CYP2E1 (Homo sapiens, UniProt P05181); test: CYP2E1 inhibition, HPLC-UV assay of 6-hydroxychlorzoxazone formation; assay type: in vitro ADME; conditions: graded by inhibition evaluation standards
CYP2E1, sequence (P05181 whole entry): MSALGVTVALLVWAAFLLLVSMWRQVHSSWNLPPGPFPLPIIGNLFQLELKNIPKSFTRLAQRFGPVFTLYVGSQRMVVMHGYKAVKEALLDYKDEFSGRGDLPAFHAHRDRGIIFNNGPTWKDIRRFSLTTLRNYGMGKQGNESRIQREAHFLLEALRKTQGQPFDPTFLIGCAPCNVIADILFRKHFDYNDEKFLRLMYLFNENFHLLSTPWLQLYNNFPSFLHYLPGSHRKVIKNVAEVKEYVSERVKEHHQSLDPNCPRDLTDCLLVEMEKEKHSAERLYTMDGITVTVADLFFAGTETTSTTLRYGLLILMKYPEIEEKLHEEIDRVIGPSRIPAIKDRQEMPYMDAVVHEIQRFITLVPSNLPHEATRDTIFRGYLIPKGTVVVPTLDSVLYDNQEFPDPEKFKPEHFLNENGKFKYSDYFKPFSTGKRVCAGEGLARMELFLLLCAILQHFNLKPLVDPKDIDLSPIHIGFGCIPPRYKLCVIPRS

CYP3A4 = CYP3A4 (Homo sapiens, UniProt P08684); test: CYP3A4 fluorescence-based high throughput inhibition assay; assay type: in vitro ADME; conditions: graded by inhibition evaluation standards
CYP3A4, sequence (P08684 whole entry): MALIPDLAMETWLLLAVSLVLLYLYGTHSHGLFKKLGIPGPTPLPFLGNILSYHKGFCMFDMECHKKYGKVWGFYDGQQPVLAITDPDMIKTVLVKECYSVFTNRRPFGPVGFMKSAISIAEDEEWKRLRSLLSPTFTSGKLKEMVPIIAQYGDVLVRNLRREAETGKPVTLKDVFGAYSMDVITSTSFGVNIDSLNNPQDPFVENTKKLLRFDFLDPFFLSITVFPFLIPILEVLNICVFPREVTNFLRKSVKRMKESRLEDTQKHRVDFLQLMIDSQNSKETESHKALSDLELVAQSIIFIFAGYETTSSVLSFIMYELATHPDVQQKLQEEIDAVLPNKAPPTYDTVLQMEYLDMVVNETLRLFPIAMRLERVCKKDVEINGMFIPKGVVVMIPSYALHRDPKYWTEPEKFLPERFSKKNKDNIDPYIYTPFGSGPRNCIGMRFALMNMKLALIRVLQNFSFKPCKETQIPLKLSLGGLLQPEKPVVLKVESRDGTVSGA

CYP2C19 [3] = target: T2, CYP2C19; conditions: HLMs; cited from earlier work
CYP2D6 [4] = target: T3, CYP2D6; conditions: HLMs; cited from earlier work
rheumatoid arthritis = conditions: 500 mg daily for 8 weeks, 50 women with rheumatoid arthritis; cited from earlier work
[5] = cited from earlier work
CYP3A2 = conditions: diabetic rats, single dose TQ; cited from earlier work

SMILES: O=c1c(O)c(-c2ccc(O)c(O)c2)oc2cc(O)cc(O)c12 [QR, Quercetin]
- inhibitory effect on CYP1A2 activity (in words) (CYP1A2): neither QR nor TQ has any significant inhibitory effect
- inhibitory effect on CYP2C19 activity (in words) (CYP2C19 [1]): moderate inhibitory effect; also recorded: moderate inhibitors
- inhibitory effect on CYP2D6 activity (in words) (CYP2D6 [2]): strong inhibitory effect
- inhibitory effect on CYP2E1 activity (in words) (CYP2E1): neither QR nor TQ has any significant inhibitory effect
- inhibitory effect on CYP3A4 activity (in words) (CYP3A4): moderate to strong inhibitory effect
- inhibition of CYP2C19 (in words) (CYP2C19 [3]): potent competitive inhibitor
- inhibition of CYP2D6 (in words) (CYP2D6 [4]): moderate competitive inhibitor
- clinical symptoms, disease activity, hs-TNF-α and erythrocyte sedimentation rate (rheumatoid arthritis): significant improvements

SMILES: CC1=CC(=O)C(C(C)C)=CC1=O [TQ, Thymoquinone]
- inhibitory effect on CYP1A2 activity (in words) (CYP1A2): neither QR nor TQ has any significant inhibitory effect
- inhibitory effect on CYP2C19 activity (in words) (CYP2C19 [1]): moderate inhibitory effect
- inhibitory effect on CYP2D6 activity (in words) (CYP2D6 [2]): no inhibitory effect
- inhibitory effect on CYP2E1 activity (in words) (CYP2E1): neither QR nor TQ has any significant inhibitory effect
- inhibitory effect on CYP3A4 activity (in words) (CYP3A4): moderate to strong inhibitory effect
- increase in t½ of glibenclamide ([5]; chronic administration of TQ): 92%
- increase in AUC of glibenclamide ([5]; diabetic rats, single dose TQ): 32.0%
- increase in t½ of glibenclamide ([5]; diabetic rats, single dose TQ): 17.4%
- hepatic protein expressions of CYP3A2 enzymes (CYP3A2): marked decrease
